For twelve molecules, IC50 results are on record in ChEMBL document CHEMBL1155953, “Synthesis and biological evaluation of C-12' substituted vinflunine derivatives” (Bioorg Med Chem Lett, 2008).

Each structure is given as a SMILES string.

One may read the IC50 as the concentration at which inhibition is half-maximal. Lower therefore signals greater potency.

The assay has as its system A549. Description: Cytotoxicity against human A549 cells by SRB assay. The assay is classed as functional, cell-based. In general terms: The SRB assay estimates cell density from bound dye.
Regarding `CC[C@]12C=CCN3CC[C@@]4(c5cc([C@@]6(C(=O)OC)C[C@H]7C[C@@H](C(C)(F)F)CN(Cc8c6[nH]c6ccc(NC)cc86)C7)c(OC)cc5N(C)[C@H]4[C@@](O)(C(=O)OC)[C@@H]1OC(C)=O)[C@@H]32`, the IC50 was 6.91 µM.

Consider `CC[C@]12C=CCN3CC[C@@]4(c5cc([C@@]6(C(=O)OC)C[C@H]7C[C@@H](C(C)(F)F)CN(Cc8c6[nH]c6ccc(CNCCO)cc86)C7)c(OC)cc5N(C)[C@H]4[C@@](O)(C(=O)OC)[C@@H]1OC(C)=O)[C@@H]32`, for which the IC50 worked out at 95.5 µM. Consider `CC[C@]12C=CCN3CC[C@@]4(c5cc([C@@]6(C(=O)OC)C[C@H]7C[C@@H](C(C)(F)F)CN(Cc8c6[nH]c6ccc(CNCCCN9CCOCC9)cc86)C7)c(OC)cc5N(C)[C@H]4[C@@](O)(C(=O)OC)[C@@H]1OC(C)=O)[C@@H]32`, for which the IC50 is > 100 µM. `CC[C@]12C=CCN3CC[C@@]4(c5cc([C@@]6(C(=O)OC)C[C@H]7C[C@@H](C(C)(F)F)CN(Cc8c6[nH]c6ccc(Nc9ccccc9)cc86)C7)c(OC)cc5N(C)[C@H]4[C@@](O)(C(=O)OC)[C@@H]1OC(C)=O)[C@@H]32` registered an IC50 of 1.86 µM. For the molecule `CC[C@]12C=CCN3CC[C@@]4(c5cc([C@@]6(C(=O)OC)C[C@H]7C[C@@H](C(C)(F)F)CN(Cc8c6[nH]c6ccc(CN9CCOCC9)cc86)C7)c(OC)cc5N(C)[C@H]4[C@@](O)(C(=O)OC)[C@@H]1OC(C)=O)[C@@H]32`, 3.93 µM corresponded to half-maximal inhibition (IC50).

For the molecule `CC[C@]12C=CCN3CC[C@@]4(c5cc([C@@]6(C(=O)OC)C[C@H]7C[C@@H](C(C)(F)F)CN(CCc8c6[nH]c6ccc(N)cc86)C7)c(OC)cc5N(C)[C@H]4[C@@](O)(C(=O)OC)[C@@H]1OC(C)=O)[C@@H]32`, 37.8 µM corresponded to half-maximal inhibition (IC50). The result for `CC[C@]12C=CCN3CC[C@@]4(c5cc([C@@]6(C(=O)OC)C[C@H]7C[C@@H](C(C)(F)F)CN(CCc8c6[nH]c6ccc(N(C)C)cc86)C7)c(OC)cc5N(C)[C@H]4[C@@](O)(C(=O)OC)[C@@H]1OC(C)=O)[C@@H]32` reads 0.22 µM; that for `CCCCNCc1ccc2[nH]c3c(c2c1)CN1C[C@H](C[C@@H](C(C)(F)F)C1)C[C@]3(C(=O)OC)c1cc2c(cc1OC)N(C)[C@H]1[C@@](O)(C(=O)OC)[C@H](OC(C)=O)[C@]3(CC)C=CCN4CC[C@]21[C@@H]43`, 1.74 µM; that for `CC[C@]12C=CCN3CC[C@@]4(c5cc([C@@]6(C(=O)OC)C[C@H]7C[C@@H](C(C)(F)F)CN(Cc8c6[nH]c6ccc(CNCCN9CCOCC9)cc86)C7)c(OC)cc5N(C)[C@H]4[C@@](O)(C(=O)OC)[C@@H]1OC(C)=O)[C@@H]32`, > 100 µM. The result for `CC[C@]12C=CCN3CC[C@@]4(c5cc([C@@]6(C(=O)OC)C[C@H]7C[C@@H](C(C)(F)F)CN(Cc8c6[nH]c6ccc(CNc9ccc(OC)cc9)cc86)C7)c(OC)cc5N(C)[C@H]4[C@@](O)(C(=O)OC)[C@@H]1OC(C)=O)[C@@H]32` reads 3.52 µM; that for `C=CCNc1ccc2[nH]c3c(c2c1)CN1C[C@H](C[C@@H](C(C)(F)F)C1)C[C@]3(C(=O)OC)c1cc2c(cc1OC)N(C)[C@H]1[C@@](O)(C(=O)OC)[C@H](OC(C)=O)[C@]3(CC)C=CCN4CC[C@]21[C@@H]43`, 0.51 µM.

For `CC[C@]12C=CCN3CC[C@@]4(c5cc([C@@]6(C(=O)OC)C[C@@H]7C[C@@H](C(C)(F)F)CN(Cc8c6[nH]c6ccccc86)C7)c(OC)cc5N(C)[C@H]4[C@@](O)(C(=O)OC)[C@@H]1OC(C)=O)[C@@H]32` [VINFLUNINE], the IC50 was 0.08 µM.
